Assay results: the supplement of paper PMC10307832

Columns and labels:
Assay in all cases: relative viability (nuclei count vs DMSO), 5 days (fraction); higher = more cells survive
[1] = compound: NS(=O)(=O)OC[C@@H]1C[C@@H](n2ccc3c(N[C@H]4CCc5ccccc54)ncnc32)C[C@@H]1O [MLN4924] + Nc1ncn([C@H]2C[C@H](O)[C@@H](CO)O2)c(=O)n1 [Decitabine] (partner 2 µM)
Outline: (§1)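 Lung cancer cell lines in 1536-well plates were dosed by pin tool the day after seeding, either with one drug alone or with a fixed anchor-drug dose plus five library-drug doses (not always all listed) in √10 steps. After 5 days, cells were fixed and their nuclei stained in one step (final 0.05% Triton X-100, 1% formaldehyde, 1 ug/ml Hoechst), then counted on 4× images. Relative viability is the nuclei count in treated wells divided by that in vehicle wells. Values are medians of duplicate plates.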

[2] = compound: C1CC(C1)(C(=O)O)C(=O)O.[NH2-].[NH2-].[Pt+2] [Carboplatin] + CS(=O)(=O)CCNCc1ccc(-c2ccc3ncnc(Nc4ccc(OCc5cccc(F)c5)c(Cl)c4)c3c2)o1 [Lapatinib] (partner 2 µM)
Outline: as §1

[3] = compound: C1CC(C1)(C(=O)O)C(=O)O.[NH2-].[NH2-].[Pt+2] [Carboplatin] + CS(=O)(=O)N1CCN(Cc2cc3nc(-c4cccc5[nH]ncc45)nc(N4CCOCC4)c3s2)CC1 [Pictilisib] (partner 1 µM)
Outline: as §1

[4] = compound: NS(=O)(=O)OC[C@@H]1C[C@@H](n2ccc3c(N[C@H]4CCc5ccccc54)ncnc32)C[C@@H]1O [MLN4924] + CS(=O)(=O)N1CCN(Cc2cc3nc(-c4cccc5[nH]ncc45)nc(N4CCOCC4)c3s2)CC1 [Pictilisib] (partner 1 µM)
Outline: as §1

Work on HCC-44 yielded a relative viability ([1]; first compound 0.04 µM) of 0.874, a relative viability ([1]; first compound 0.1265 µM) of 0.85 and a relative viability ([1]; first compound 0.4 µM) of 0.582. For the same cell line, the relative viability ([1]; first compound 1.265 µM) was 0.421, the relative viability ([1]; first compound 4 µM) was 0.399 and the relative viability ([2]; first compound 0.08 µM) was 1.03. For the same cell line, the relative viability ([2]; first compound 0.253 µM) was 1.01, the relative viability ([2]; first compound 0.8 µM) was 0.984 and the relative viability ([2]; first compound 2.53 µM) was 0.965. For the same cell line, the relative viability ([2]; first compound 8 µM) was 0.968, the relative viability ([3]; first compound 0.08 µM) was 0.577 and the relative viability ([3]; first compound 0.253 µM) was 0.552. For the same cell line, the relative viability ([3]; first compound 0.8 µM) was 0.666, the relative viability ([3]; first compound 2.53 µM) was 0.554 and the relative viability ([3]; first compound 8 µM) was 0.592. For the same cell line, the relative viability ([4]; first compound 0.04 µM) was 0.641, the relative viability ([4]; first compound 0.1265 µM) was 0.474 and the relative viability ([4]; first compound 0.4 µM) was 0.0983. It also gave a relative viability ([4]; first compound 1.265 µM) of 0.0904 and a relative viability ([4]; first compound 4 µM) of 0.127.

HCC-78 gave a relative viability ([1]; first compound 0.04 µM) of 0.685, a relative viability ([1]; first compound 0.1265 µM) of 0.775 and a relative viability ([1]; first compound 0.4 µM) of 0.485. It also gave a relative viability ([1]; first compound 1.265 µM) of 0.27, a relative viability ([1]; first compound 4 µM) of 0.244 and a relative viability ([2]; first compound 0.08 µM) of 0.867. It also gave a relative viability ([2]; first compound 0.253 µM) of 0.833, a relative viability ([2]; first compound 0.8 µM) of 0.971 and a relative viability ([2]; first compound 2.53 µM) of 0.875. It also gave a relative viability ([2]; first compound 8 µM) of 0.631, a relative viability ([3]; first compound 0.08 µM) of 0.213 and a relative viability ([3]; first compound 0.253 µM) of 0.228. It also gave a relative viability ([3]; first compound 0.8 µM) of 0.194, a relative viability ([3]; first compound 2.53 µM) of 0.217 and a relative viability ([3]; first compound 8 µM) of 0.21. It also gave a relative viability ([4]; first compound 0.04 µM) of 0.272, a relative viability ([4]; first compound 0.1265 µM) of 0.187 and a relative viability ([4]; first compound 0.4 µM) of 0.14. It also gave a relative viability ([4]; first compound 1.265 µM) of 0.138 and a relative viability ([4]; first compound 4 µM) of 0.139.

For HCC-366, the relative viability ([1]; first compound 0.04 µM) was 0.335, the relative viability ([1]; first compound 0.1265 µM) was 0.338 and the relative viability ([1]; first compound 0.4 µM) was 0.279. For the same cell line, the relative viability ([1]; first compound 1.265 µM) was 0.164, the relative viability ([1]; first compound 4 µM) was 0.0343 and the relative viability ([2]; first compound 0.08 µM) was 1.08. It also gave a relative viability ([2]; first compound 0.253 µM) of 1.01, a relative viability ([2]; first compound 0.8 µM) of 0.988 and a relative viability ([2]; first compound 2.53 µM) of 0.963. It also gave a relative viability ([2]; first compound 8 µM) of 0.863, a relative viability ([3]; first compound 0.08 µM) of 0.138 and a relative viability ([3]; first compound 0.253 µM) of 0.128. The relative viability ([3]; first compound 0.8 µM) was 0.0961, the relative viability ([3]; first compound 2.53 µM) was 0.158 and the relative viability ([3]; first compound 8 µM) was 0.106. For the same cell line, the relative viability ([4]; first compound 0.04 µM) was 0.232, the relative viability ([4]; first compound 0.1265 µM) was 0.496 and the relative viability ([4]; first compound 0.4 µM) was 0.326. It also gave a relative viability ([4]; first compound 1.265 µM) of 0.102 and a relative viability ([4]; first compound 4 µM) of 0.0407.

Cell Line HCC-827 has a relative viability ([1]; first compound 0.04 µM) of 0.336, a relative viability ([1]; first compound 0.1265 µM) of 0.308 and a relative viability ([1]; first compound 0.4 µM) of 0.218. The relative viability ([1]; first compound 1.265 µM) was 0.15, the relative viability ([1]; first compound 4 µM) was 0.2 and the relative viability ([2]; first compound 0.08 µM) was 0.236. For the same cell line, the relative viability ([2]; first compound 0.253 µM) was 0.175, the relative viability ([2]; first compound 0.8 µM) was 0.18 and the relative viability ([2]; first compound 2.53 µM) was 0.187. It also gave a relative viability ([2]; first compound 8 µM) of 0.224, a relative viability ([3]; first compound 0.08 µM) of 0.886 and a relative viability ([3]; first compound 0.253 µM) of 0.923. It also gave a relative viability ([3]; first compound 0.8 µM) of 0.79, a relative viability ([3]; first compound 2.53 µM) of 0.846 and a relative viability ([3]; first compound 8 µM) of 0.897. It also gave a relative viability ([4]; first compound 0.04 µM) of 1.12, a relative viability ([4]; first compound 0.1265 µM) of 0.641 and a relative viability ([4]; first compound 0.4 µM) of 0.808. For the same cell line, the relative viability ([4]; first compound 1.265 µM) was 0.382 and the relative viability ([4]; first compound 4 µM) was 0.311.

In the case of HOP-62, the relative viability ([1]; first compound 0.04 µM) is reported as 0.195, the relative viability ([1]; first compound 0.1265 µM) is reported as 0.201 and the relative viability ([1]; first compound 0.4 µM) is reported as 0.0844. It also gave a relative viability ([1]; first compound 1.265 µM) of 0.0618, a relative viability ([1]; first compound 4 µM) of 0.0785 and a relative viability ([2]; first compound 0.08 µM) of 0.98. For the same cell line, the relative viability ([2]; first compound 0.253 µM) was 1.07, the relative viability ([2]; first compound 0.8 µM) was 1.09 and the relative viability ([2]; first compound 2.53 µM) was 1.02. It also gave a relative viability ([2]; first compound 8 µM) of 0.812, a relative viability ([3]; first compound 0.08 µM) of 0.527 and a relative viability ([3]; first compound 0.253 µM) of 0.747. For the same cell line, the relative viability ([3]; first compound 0.8 µM) was 0.663, the relative viability ([3]; first compound 2.53 µM) was 0.64 and the relative viability ([3]; first compound 8 µM) was 0.65. The relative viability ([4]; first compound 0.04 µM) was 0.521, the relative viability ([4]; first compound 0.1265 µM) was 0.428 and the relative viability ([4]; first compound 0.4 µM) was 0.0949. For the same cell line, the relative viability ([4]; first compound 1.265 µM) was 0.0537 and the relative viability ([4]; first compound 4 µM) was 0.103.

IA-LM showed a relative viability ([2]; first compound 0.08 µM) of 0.809, a relative viability ([2]; first compound 0.253 µM) of 0.802 and a relative viability ([2]; first compound 0.8 µM) of 0.739. The relative viability ([2]; first compound 2.53 µM) was 0.929, the relative viability ([2]; first compound 8 µM) was 0.77 and the relative viability ([3]; first compound 0.08 µM) was 0.404. It also gave a relative viability ([3]; first compound 0.253 µM) of 0.373, a relative viability ([3]; first compound 0.8 µM) of 0.353 and a relative viability ([3]; first compound 2.53 µM) of 0.261. For the same cell line, the relative viability ([3]; first compound 8 µM) was 0.242, the relative viability ([4]; first compound 0.04 µM) was 0.342 and the relative viability ([4]; first compound 0.1265 µM) was 0.145. It also gave a relative viability ([4]; first compound 0.4 µM) of 0.0958, a relative viability ([4]; first compound 1.265 µM) of 0.0574 and a relative viability ([4]; first compound 4 µM) of 0.0645.

In the case of LC-2-ad, the relative viability ([1]; first compound 0.04 µM) is reported as 0.791, the relative viability ([1]; first compound 0.1265 µM) is reported as 0.748 and the relative viability ([1]; first compound 0.4 µM) is reported as 0.585. For the same cell line, the relative viability ([1]; first compound 1.265 µM) was 0.508, the relative viability ([1]; first compound 4 µM) was 0.322 and the relative viability ([2]; first compound 0.08 µM) was 0.967. The relative viability ([2]; first compound 0.253 µM) was 0.981, the relative viability ([2]; first compound 0.8 µM) was 0.938 and the relative viability ([2]; first compound 2.53 µM) was 0.991. For the same cell line, the relative viability ([2]; first compound 8 µM) was 0.844, the relative viability ([3]; first compound 0.08 µM) was 0.669 and the relative viability ([3]; first compound 0.253 µM) was 0.477. It also gave a relative viability ([3]; first compound 0.8 µM) of 0.436, a relative viability ([3]; first compound 2.53 µM) of 0.447 and a relative viability ([3]; first compound 8 µM) of 0.399. The relative viability ([4]; first compound 0.04 µM) was 0.122, the relative viability ([4]; first compound 0.1265 µM) was 0.427 and the relative viability ([4]; first compound 0.4 µM) was 0.39. It also gave a relative viability ([4]; first compound 1.265 µM) of 0.143 and a relative viability ([4]; first compound 4 µM) of 0.116.

Cell Line LCLC-97TM1 has a relative viability ([1]; first compound 0.04 µM) of 0.188, a relative viability ([1]; first compound 0.1265 µM) of 0.156 and a relative viability ([1]; first compound 0.4 µM) of 0.133. It also gave a relative viability ([1]; first compound 1.265 µM) of 0.0597, a relative viability ([1]; first compound 4 µM) of 0.0565 and a relative viability ([2]; first compound 0.08 µM) of 0.891. The relative viability ([2]; first compound 0.8 µM) was 1.02, the relative viability ([2]; first compound 2.53 µM) was 1.08 and the relative viability ([2]; first compound 8 µM) was 1. For the same cell line, the relative viability ([3]; first compound 0.08 µM) was 0.209, the relative viability ([3]; first compound 0.8 µM) was 0.233 and the relative viability ([3]; first compound 2.53 µM) was 0.194. For the same cell line, the relative viability ([3]; first compound 8 µM) was 0.18, the relative viability ([4]; first compound 0.04 µM) was 0.159 and the relative viability ([4]; first compound 0.1265 µM) was 0.224. It also gave a relative viability ([4]; first compound 0.4 µM) of 0.132, a relative viability ([4]; first compound 1.265 µM) of 0.129 and a relative viability ([4]; first compound 4 µM) of 0.104.
